# Assays:
# Neutrophil elastase [1] = molecular target: T1, Neutrophil elastase (Homo sapiens, UniProt P08246); experiment: Inhibition of human neutrophil elastase using MeOSuc-Ala-Ala-Pro-Val-AMC as substrate after 15 mins by fluorescence assay
# T1 sequence (P08246 whole entry): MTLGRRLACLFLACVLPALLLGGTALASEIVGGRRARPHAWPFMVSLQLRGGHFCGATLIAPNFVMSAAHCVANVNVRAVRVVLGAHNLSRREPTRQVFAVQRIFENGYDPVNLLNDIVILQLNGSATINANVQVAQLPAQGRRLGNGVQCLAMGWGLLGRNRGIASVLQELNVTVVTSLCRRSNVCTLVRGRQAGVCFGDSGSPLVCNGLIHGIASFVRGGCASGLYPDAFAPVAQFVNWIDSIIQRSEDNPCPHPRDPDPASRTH
# Neutrophil elastase [2] = molecular target: T1, Neutrophil elastase; experiment: Inhibition of neutrophil elastase in human plasma using MeOSuc-Ala-Ala-Pro-Val-AMC as substrate by fluorescence assay
IC50 (Neutrophil elastase [1]),EC50 (Neutrophil elastase [2]),SMILES
3.7 nM,4 nM,N#Cc1ccc(C2C3=C(CCC3=O)N(c3cccc(C(F)(F)F)c3)C(=O)N2CC(=O)N2CCC2)cc1 (centres undefined)
< 1 nM,< 1 nM,CS(=O)(=O)c1cc(C#N)ccc1C1C2=C(CCC2=O)N(c2cccc(C(F)F)c2)C(=O)N1C(=O)N1CC1 (centres undefined)

# From ChEMBL document CHEMBL3351314, “Neutrophil elastase inhibitors as potential anti-inflammatory therapies” (ACS Med Chem Lett, 2014)
